Laboratory results: patent US20210395327A1, “Growth Hormone-Releasing Hormone Antagonists and Uses Thereof” (United States Government As Represented By The Department …, priority 2019, published 2021)
Entries after “also recorded” stand apart in the source; their conditions may differ. Read-outs that look alike come from different tables or passages of the source. Non-standard residues stand in square brackets, D forms with d. Residues, ends and D or L forms follow the SMILES beside them. *: point of attachment. Phenylacetyl(2,3,4,5,6-F5) = O=C(Cc1c(F)c(F)c(F)c(F)c1F)*; Phe(F5) = N[C@@H](Cc1c(F)c(F)c(F)c(F)c1F)C(=O)O; Phe(4-Cl) = N[C@@H](Cc1ccc(Cl)cc1)C(=O)O; hArg = N=C(N)NCCCC[C@H](N)C(=O)O; 12Ado = NCCCCCCCCCCCC(=O)O; Nle = CCCC[C@H](N)C(=O)O; Orn = NCCC[C@H](N)C(=O)O; Abu = CC[C@H](N)C(=O)O; PhAc = O=C(Cc1ccccc1)*

Legend:
[1] = molecular target: T1, membrane GHRH-receptors on human anterior pituitary cells (Homo sapiens, UniProt Q02643); test: Receptor binding, displacement of 125I-[His1,Nle27]-hGH-RH(1-32)NH2 on human pituitary membranes
T1 construct: Human pituitary was purchased from the National Hormone and Peptide Program; tissue National Hormone and Peptide Program; host or cells: human pituitary (membrane fractions)
T1 sequence (Q02643 23-423): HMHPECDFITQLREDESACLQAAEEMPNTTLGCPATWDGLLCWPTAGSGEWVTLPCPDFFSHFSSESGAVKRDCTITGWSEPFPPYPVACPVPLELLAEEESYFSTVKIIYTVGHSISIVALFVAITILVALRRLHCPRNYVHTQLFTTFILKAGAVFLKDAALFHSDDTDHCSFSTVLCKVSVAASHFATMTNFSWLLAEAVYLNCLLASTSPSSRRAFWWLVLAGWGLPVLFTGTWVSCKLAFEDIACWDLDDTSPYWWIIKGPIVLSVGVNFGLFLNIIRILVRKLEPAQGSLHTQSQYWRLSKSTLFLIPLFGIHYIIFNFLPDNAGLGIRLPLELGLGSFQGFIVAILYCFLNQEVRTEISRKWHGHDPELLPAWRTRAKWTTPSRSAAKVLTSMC
Procedure: Receptor binding affinities in vitro. Preparation of human pituitary membrane fractions and receptor binding of analogs of GH-RH were performed (Halmos G, Rekasi Z, Szoke B, Schally A V. (1993) Receptor 3:87-97). Human pituitary was purchased from the National Hormone and Peptide Program. […] Relative affinities compared to hGH-RH(1-29)NH2 were calculated as the ratio of IC50 (dose causing 50% inhibition of specific binding to receptors) of the tested peptides to the IC50 of hGH-RH(1-29)NH2. The values were calculated from technical duplicate tubes.
Nineteen new AVR analogs of GHRH were tested in the receptor binding assay. Table 6 presents the IC50 values of GHRH antagonists to membrane GHRH-receptors binding on human anterior pituitary cells.

[2] = system: KATOIII stomach cancer cells; test: In vitro cell viability, KATOIII; type: cell-based, human; conditions: antagonist 5 μM for 72 h, cell proliferation assay; MIA602 = 1
Procedure: (§1) The inhibitory effects of the various synthesized GHRH antagonists were tested in cell proliferation assays in various human cancer cell lines including stomach cancer (KATOIII, N87), colon cancer (HT-29), urothelial cancer (J82, RT4), pancreatic cancer (PANC-1, CFPAC-1), prostatic cancer (PC3), breast cancer (MX-1, HCC1806), ovarian cancer (SK-OV-3, OVCAR-3) and lung cancer (HCC827, H460).
(§2) Cell culture. Human cancer cell lines including pancreatic (PANC-1 and CFPAC-1), lung (HCC827 and H460), stomach (NCI-N87 and KATOIII), urothelial (J82, RT4), prostatic (PC3), breast (MX-1 and HCC 1806), colorectal (HT-29), and ovarian (SK-OV-3 and OVCAR-3) were obtained from the American Type Culture Collection (ATCC) and cultured at 37° C. in a humidified 95% air/5% CO2 atmosphere in the medium recommended by ATCC.
(§3) In vitro cell viability. Cell viability was analyzed as follows: cancer cells including pancreatic (PANC-1 and CFPAC-1), lung (HCC827 and H460), stomach (NCI-N87 and KATOIII), urothelial (J82, RT4), prostatic (PC3) and breast (MX-1 and HCC 1806), colorectal (HT-29) and ovarian (SK-OV-3 and OVCAR-3) were grown on 96 well plates to ˜60% confluence, the cells were starved for 24 h in culture medium containing 0.5% FBS. Cells were then treated with GHRH antagonists MIA602 AVR compounds at concentrations of 1, 2.5 or 5 μM, or vehicle (0.1% DMSO) in quintuplicates for 72 hours. The medium was replaced every 48 hours. Cell viability was measured using CellTiter 96 aqueous one solution kit (Promega). Inhibitory effects of tested AVR compounds in comparison to that of MIA602 are presented as inhibitory potency.
(§4) Inhibitory effects of selected AVR compounds in comparison to that of MIA602 are presented as inhibitory potency (e.g., percentage of inhibition). […] The cell lines tested including lung cancer HCC827 (FIG. 2A), pancreatic cancer CFPAC-1 (FIG. 2B), stomach cancer N87 (FIG. 2C), colon cancer HT-29 (FIG. 2D), breast cancers MX-1 and HCC1806 (FIGS. 2 E, F). Based on the results of cell proliferation assay after cancer cells were treated with antagonist at concentration of 5 μM for 72H, the relative inhibitory potency of AVR antagonists in comparison to MIA-602 is summarized in Table 3 A and B. Over 60 AVR compounds were tested in 12 cancer cell lines.

[3] = system: HCC827 lung cancer cells; test: In vitro cell viability, HCC827; type: cell-based, human; conditions: antagonist 5 μM for 72 h, cell proliferation assay; MIA602 = 1
Procedure: as §1, §2, §3, §4
(§5) Based on the results of cell proliferation assay after cancer cells were treated with antagonist at concentration of 5 µM for 72H, * at concentration of 2 µM for 72 H.

[4] = system: CFPAC-1 pancreatic cancer cells; test: In vitro cell viability, CFPAC-1; type: cell-based, human; conditions: antagonist 5 μM for 72 h, cell proliferation assay; MIA602 = 1
Procedure: as §1, §2, §3, §4, §5

[5] = membrane receptors on human anterior pituitary cells, mean of two to three determinations, read-out: IC50

Row | Structure (SMILES) | IC50 [1] [nM] | relative inhibitory potency in comparison to MIA-602, Stomach KATOIII [2] | IC50 [1, 5] [nM] | relative inhibitory potency in comparison to MIA-602, Lung IICC827 [3] | relative inhibitory potency in comparison to MIA-602, Pancreatic CFPAC-1 [4] | binding affinity to membrane receptors of human pituitary cells (in words) ([1]; competitive binding, human pituitary membrane fractions)
1 | CCCC[C@H](NC(=O)[C@@H](NC(=O)[C@H](CC(=O)O)NC(=O)[C@H](CCC(N)=O)NC(=O)[C@H](CC(C)C)NC(=O)[C@H](CC(C)C)NC(=O)[C@H](CCCN)NC(=O)[C@H](Cc1c[nH]cn1)NC(=O)[C@H](C)NC(=O)[C@H](CO)NC(=O)[C@H](CC(C)C)NC(=O)[C@H](CCC(N)=O)NC(=O)[C@H](CC)NC(=O)[C@H](CC(C)C)NC(=O)[C@@H](NC(=O)[C@H](CCCN)NC(=O)[C@H](Cc1c[nH]cn1)NC(=O)[C@H](Cc1c(F)c(F)c(F)c(F)c1F)NC(=O)[C@H](CCCCNC(=N)N)NC(=O)[C@H](C)NC(=O)[C@@H](NC(=O)[C@H](Cc1ccc(Cl)cc1)NC(=O)[C@@H](NC(=O)[C@H](C)NC(=O)[C@H](CC(=O)O)NC(=O)[C@@H](CCCNC(=N)N)NC(=O)[C@H](Cc1ccc(O)cc1)NC(=O)CCCCCCCCCCCNC(=O)Cc1ccccc1)[C@@H](C)CC)[C@@H](C)O)C(C)C)[C@@H](C)CC)C(=O)N[C@H](CCCNC(=N)N)C(=O)N[C@@H](CCCCNC(=N)N)C(N)=O [MIA-690, reference compound] ({PhAc-12Ado}-Y[dR]DAI[Phe(4-Cl)]TA[hArg][Phe(F5)]H[Orn]VL[Abu]QLSAH[Orn]LLQDI[Nle][dR][hArg]-NH2) | 0.53 | – | – | – | – | –
2 | CCCC[C@H](NC(=O)[C@@H](NC(=O)[C@H](CC(=O)O)NC(=O)[C@H](CCC(N)=O)NC(=O)[C@H](CC(C)C)NC(=O)[C@H](CC(C)C)NC(=O)[C@H](CCCCN)NC(=O)[C@H](CCCNC(=N)N)NC(=O)[C@H](C)NC(=O)[C@H](CO)NC(=O)[C@H](CC(C)C)NC(=O)[C@H](CCC(N)=O)NC(=O)[C@H](CC)NC(=O)[C@H](CC(C)C)NC(=O)[C@@H](NC(=O)[C@H](CCCCN)NC(=O)[C@H](CCCNC(=N)N)NC(=O)[C@H](Cc1ccc(OC)cc1)NC(=O)[C@H](CCCCNC(=N)N)NC(=O)[C@H](CC(N)=O)NC(=O)[C@@H](NC(=O)[C@H](Cc1ccc(Cl)cc1)NC(=O)[C@@H](NC(=O)[C@H](C)NC(=O)[C@H](CC(=O)O)NC(=O)[C@@H](CCCNC(=N)N)NC(=O)[C@H](Cc1ccc(O)cc1)NC(=O)CCCCCCCCCCCNC(=O)Cc1ccccc1)[C@@H](C)CC)[C@@H](C)O)C(C)C)[C@@H](C)CC)C(=O)N[C@H](CCCNC(=N)N)C(=O)N[C@@H](CCCCNC(=N)N)C(=O)NCCCCCCCCCCCC(N)=O [AVR-332] ({PhAc-12Ado}-Y[dR]DAI[Phe(4-Cl)]TN[hArg]Y(Me)RKVL[Abu]QLSARKLLQDI[Nle][dR][hArg][12Ado]-NH2) | – | 1.643 | 0.34 | – | – | –
3 | CCCC[C@H](NC(=O)[C@@H](NC(=O)[C@H](CC(=O)O)NC(=O)[C@H](CCC(N)=O)NC(=O)[C@H](CC(C)C)NC(=O)[C@H](CC(C)C)NC(=O)[C@H](CCCN)NC(=O)[C@H](Cc1c[nH]cn1)NC(=O)[C@H](C)NC(=O)[C@H](CO)NC(=O)[C@H](CC(C)C)NC(=O)[C@H](CCC(N)=O)NC(=O)[C@H](CC)NC(=O)[C@H](CC(C)C)NC(=O)[C@@H](NC(=O)[C@H](CCCN)NC(=O)[C@H](Cc1c[nH]cn1)NC(=O)[C@H](Cc1c(F)c(F)c(F)c(F)c1F)NC(=O)[C@H](CCCCNC(=N)N)NC(=O)[C@H](C)NC(=O)[C@@H](NC(=O)[C@H](Cc1ccc(Cl)cc1)NC(=O)[C@@H](NC(=O)[C@H](C)NC(=O)[C@H](CC(=O)O)NC(=O)[C@@H](CCCNC(=N)N)NC(=O)[C@H](Cc1ccc(O)cc1)NC(=O)CCCCCCCCCCCNC(=O)Cc1c(F)c(F)c(F)c(F)c1F)[C@@H](C)CC)[C@@H](C)O)C(C)C)[C@@H](C)CC)C(=O)N[C@H](CCCNC(=N)N)C(=O)N[C@@H](CCCCNC(=N)N)C(=O)NCCCCCCCCCCCC(N)=O [AVR-552, 5FPhAC-Ada-Tyr-DArg-Asp-Ala-Ile-Cpa-Thr-Ala-Har-5FPhe-His-Orn-Val-Leu-Abu-Gln-Leu-Ser-Ala-His-Orn-Leu-Leu-Gln-Asp-Ile-Nle-DArg-Har-Ada-NH2] ({Phenylacetyl(2,3,4,5,6-F5)-12Ado}-Y[dR]DAI[Phe(4-Cl)]TA[hArg][Phe(F5)]H[Orn]VL[Abu]QLSAH[Orn]LLQDI[Nle][dR][hArg][12Ado]-NH2) | – | – | 0.17 | 4.376 | 1.57 | higher binding affinity in comparison to MIA-602; also recorded: highest binding affinities
4 | CCCC[C@H](NC(=O)[C@@H](NC(=O)[C@H](CC(=O)O)NC(=O)[C@H](CCC(N)=O)NC(=O)[C@H](CC(C)C)NC(=O)[C@H](CC(C)C)NC(=O)[C@H](CCCN)NC(=O)[C@H](Cc1c[nH]cn1)NC(=O)[C@H](C)NC(=O)[C@H](CO)NC(=O)[C@H](CC(C)C)NC(=O)[C@H](CCC(N)=O)NC(=O)[C@H](CC)NC(=O)[C@H](CC(C)C)NC(=O)[C@@H](NC(=O)[C@H](CCCN)NC(=O)[C@H](Cc1c[nH]cn1)NC(=O)[C@H](Cc1c(F)c(F)c(F)c(F)c1F)NC(=O)[C@H](CCCCNC(=N)N)NC(=O)[C@H](C)NC(=O)[C@@H](NC(=O)[C@H](Cc1ccc(Cl)cc1)NC(=O)[C@@H](NC(=O)[C@H](C)NC(=O)[C@H](CC(=O)O)NC(=O)[C@@H](CCCNC(=N)N)NC(=O)[C@H](Cc1ccc(O)cc1)NC(=O)CCCCCCCCCCCNC(=O)Cc1c(F)c(F)c(F)c(F)c1F)[C@@H](C)CC)[C@@H](C)O)C(C)C)[C@@H](C)CC)C(=O)N[C@H](CCCNC(=N)N)C(=O)N[C@@H](CCCCNC(=N)N)C(=O)NC [AVR-542, 5FPhAC-Ada-Tyr-DArg-Asp-Ala-Ile-Cpa-Thr-Ala-Har-5FPhe-His-Orn-Val-Leu-Abu-Gln-Leu-Ser-Ala-His-Orn-Leu-Leu-Gln-Asp-Ile-Nle-DArg-Har-NHCH3] ({Phenylacetyl(2,3,4,5,6-F5)-12Ado}-Y[dR]DAI[Phe(4-Cl)]TA[hArg][Phe(F5)]H[Orn]VL[Abu]QLSAH[Orn]LLQDI[Nle][dR][hArg]-NHMe) | – | – | – | 2.649 | 1.312 | –
